Source: US20020159981A1, “Methods of controlling proliferation and differentiation of stem and progenitor cells” (Gamida-Cell Ltd., priority 1999, published 2002)

Experiments:
[1] = test system: Cord blood-derived CD34 cells; test: Short-term liquid culture of CD34 cells: cell number, CD34 cells, colony forming cells; type: cell-based, human
Protocol: The interphase layer of mononuclear cells were collected, washed three times with Ca/Mg free phosphate buffered saline containing 1% bovine serum albumin (BSA). The cells were incubated for 30 min. at 4° C. with murine monoclonal anti CD34 antibody (0.5 μg/10^6 mononuclear cells) and thereafter isolated using the miniMACS apparatus (Miltenyi-Biotec, Bergisch, Gladbach, Germany) according to the manufacturer's protocol.
(§1) Culture procedures: For the expansion of progenitor cells, CD34^+ enriched fractions or unseparated mononuclear cells were seeded at about 1-3×10^4 cells/ml in either alpha minimal essential medium containing 10% preselected fetal calf serum (FCS) (both from GIBCO, Grand Island, N.Y.), or serum-free medium (Progenitor-34 medium, Life Technologies, Grand Island, N.Y.). The media were supplemented with a mixture of growth factors and transition metal chelators. The cultures were incubated at 37° C. in an atmosphere of 5% CO2 in air with extra humidity. Half of the medium was changed weekly with fresh medium containing all the supplements.
(§2) Cloning potential evaluations: The cloning potential of cells developed in the liquid culture was assayed, at different intervals, in semi-solid medium. The cells were washed and seeded in 35 mm dishes in methylcellulose containing alpha medium supplemented with recombinant growth factors (SCF, G-CSF, GM-CSF and EPO). Following 2 weeks incubation, the cultures were scored with an inverted microscope. Colonies were classified as blast, mixed, erythroid, myeloid, and megakaryocytic, according to their cellular composition.
Immunofluorescence staining: At different intervals, cells from the liquid cultures were assayed for CD34 antigen. Aliquots were harvested, washed and incubated on ice with FITC-labeled anti CD45 monoclonal antibody and either PE-labeled anti CD34 (HPCA-2) monoclonal antibody or PE-labeled control mouse Ig. After incubation, red cells were lysed with lysing solution, while the remaining cells were washed and analyzed by flow cytometer.
Flow cytometry: Cells were analyzed and sorted using FACStarPlus flow cytometer (Becton-Dickinson, Immunofluorometry systems, Mountain View, Calif.). Cells were passed at a rate of 1,000 cells/second through a […] nozzle, using saline as the sheath fluid. A 488 nm argon laser beam at 250 mW served as the light source for excitation. […] The PMTs was set at the appropriate voltage. Logarithmic amplification was applied for measurements of fluorescence and linear amplification—for forward light scatter. At least 10^4 cells were analyzed.
Cord blood-derived CD34 cells were plated in liquid culture in the presence of: FL—50 ng/ml, SCF—50 ng/ml, IL-6—50 ng/ml, with or without IL-3—20 ng/ml, with or without TEPA—10 μM. On day 7, the percentage of CD34 cells and the total cell number were determined. Aliquots equivalent to 1×10^3 initiating cells were assayed on days 0 and 7 for colony forming cells (CFU) by cloning in semi-solid medium. CFU expansion represents the ratio of CFU present on day 7 to CFU present on day 0.

[2] = test system: Cord blood-derived CD34 cells; test: Long-term liquid culture of CD34 cells: proliferation, CFUc, differentiation status; type: cell-based, human
Protocol: as §1, §2
Morphological assessment: In order to characterize the resulting culture populations, aliquots of cells were deposited on a glass slide (cytocentrifuge, Shandon, Runcorn, UK), fixed and stained in May-Grunwald Giemsa. Other aliquots were stained by benzidine for intracellular hemoglobin.
TEPA effects on proliferation and clonability of long-term CD34^+ cultures: Long-term cultures were maintained for 3-5 weeks by weekly demi-depopulation (one half of the culture volume was removed and replaced by fresh medium and cytokines).
CD34^+ cells derived from human neonatal cord blood were purified by immunomagnetic method and then cultured in liquid medium supplemented with cytokines either with or without transition metal chelators. At weekly intervals, the cultures were demi-depopulated by removing half of the culture content (supernatant and cells) and replacing it with fresh medium, cytokines and the chelators. At the indicated weeks the cellular content of the cultures were quantified for total cells (by a manual microscopic/hemocytometric method), for CD34^+ cells (by immuno-flow cytometry) and for clonogenic cells (by cloning the cells in cytokine-supplemented semi-solid medium). The cultures were initiated with 1×10^4 cells, 50-80% of which were CD34^+ and 25-50% of which were CFUc. The results presented in FIGS. 11 to 24 were calculated per 1×10^4 initiating cells (the numbers were multiplied by the dilution factors).

Cord blood-derived cells = test: Preservation of stem cells: storage and separation with TEPA, then long-term culture; type: cell-based; conditions: cells stored 24 hours at 4° C. and separated with 10 μM TEPA; without TEPA 5 weeks
Protocol: Cord blood-derived cells were collected and stored (unseparated) for 24 hours, at 4° C., either in the presence or absence of 10 μM TEPA. CD34^+ cells were then separated using either 10 μM TEPA-PBS buffer or TEPA free PBS buffer, respectively. Then, cells were grown in long-term cultures in the presence of 10 μM TEPA.

Hepatocytes = test: Ex-vivo expansion of hepatocytes; type: cell-based, BALB/c mice; conditions: 15 μg/ml TEPA, five weeks (FIGS. 27a-d)
Protocol: Hepatocytes: Livers were dissected from anesthetized BALB/c mice with sterile tools and immersed into F12 culture medium (Biological Industries, Kibbutz Bet Ha'Emek, Israel). The livers were washed three times with 3% BSA/PBS buffer and minced into small pieces with seizures. Following three washes with 3% BSA/PBS the liver tissue pieces were incubated for 30 minutes with 0.05% collagenase at 37° C. with continues shaking under 5% CO2 atmosphere. The digested liver tissue pieces were than mashed by pressing through a fine mesh strainer. After three washes with 3% BSA/PBS the liver cells were seeded into F12 culture medium enriched with: 15 mM HEPES buffer, […], 10 mM sodium bicarbonate, 0.5 u/ml insulin, 7.5 ng/ml hydrocortisone and with or without 15 μg/ml of TEPA and incubated at 37° C. in a 5% CO2 atmosphere. After overnight incubation the medium was removed and the cells were supplemented with fresh enriched F12 medium as described above with or without 15 μg/ml of TEPA. Hepatocytes were incubated in 35 mm dishes for several weeks with enriched F12 culture medium with or without 15 μg/ml TEPA at 37° C. under 5% CO2 atmosphere. Cell culture medium was replaced every week with a fresh medium.

[3] = test system: lethally irradiated Balb/c×C57B1/6 F1 mice; test: Hematopoietic reconstitution of lethally irradiated mice with ex-vivo expanded bone marrow cells; type: in vivo; conditions: compared to fresh cells or cells expanded without TEPA
Protocol: Hematopoietic reconstitution of lethally irradiated mice—fresh vs. ex-vivo expanded cells: Three month old female Balb/c×C57B1/6 F1 mice were lethally irradiated (1000 rad) and transplanted one day later with 1×10^5 fresh bone marrow cells or the yield of 1×10^5 bone marrow cells expanded ex-vivo either with or without TEPA for 3 to 5 weeks, as detailed in Table 7. Peripheral blood WBC counts were performed on weekly basis.

[4] = high doses of early cytokines or early- and late-acting cytokines (Table 1, FIG. 3)

NCCNCCNCCNCCN [TEPA, tetraethylenepentamine]
Cells/ml (×10^4) ([1]; TEPA 10 μM, without IL-3, FL, SCF, IL-6 50 ng/ml each, day 7): 2 ×10^4 cells/ml
total cell number ([1]; cultures supplemented with both early and late cytokines (FIG. 3)): marginal inhibition
clonability [1, 4]: significantly increased
percentage of CD34^+ cells [1, 4]: significantly increased
cell clonability ([1]; low doses of early-acting cytokines, colonies in semi-solid medium (FIG. 1)): significant increase
total cell number ([1]; low doses of early-acting cytokines, compared to cytokines only (FIG. 2)): significant increase
number of CD34^+ cells ([1]; low doses of early-acting cytokines, flow cytometry (FIG. 2)): significant increase
activity on differentiation of CD34^+ cells [2]: inhibit differentiation
clonability in long-term cultures ([2]; 3-5 weeks, early or early and late cytokines, compared to cytokines only (FIGS. 3, 4)): higher clonability
differentiation stimulatory effect of G-CSF and GM-CSF ([2]; G-CSF and GM-CSF 10 ng/ml each, CFUc frequency (FIG. 15)): blocked
CFUc in culture upon termination ([2]; after 6 weeks, started with 2.5×10^3 CFUc, TEPA 10 μM): 300×10^3 CFUc
time cultures could be maintained ([2]; early-acting cytokines, no stromal cells, TEPA 10 μM (FIG. 11)): > 6 weeks
effectiveness among polyamine chelating agents ([2]; long term cultures (FIGS. 21a-b)): more effective than the short-chain polyamines
cell proliferation and generation of CFUc in long-term cultures ([2]; long-term cultures (FIGS. 21, 22)): support continuous cell proliferation and long-term generation of CFUc and to delay cell differentiation
concentrations with optimal activity ([2]; polyamine chelating agents, weeks 3, 4, 6, 7 (FIGS. 21a-b)): 40 µM
concentrations with optimal activity ([2]; transition metal chelating agents, weeks 4, 5, 7 (FIGS. 22a-b)): 10 µM
time cultures expanded (Cord blood-derived cells): 8 weeks
state of hepatocytes cultures (Hepatocytes): contained many dividing and undifferentiated cells
WBC recovery [3]: faster
